In patent EP0644194A1, “PYRIDOTHIAZINEACETIC ACID COMPOUND, PROCESS FOR PRODUCING THE SAME, AND USE THEREOF” (THE GREEN CROSS CORPORATION, priority 1993, dated 1994):
Read-outs that look alike come from different tables or passages of the source. Marks after values point to notes of the source that are not given here.

Legend:
aldose reductase = biological target: T1, aldose reductase (Sus scrofa, UniProt P80276); experiment: Aldose reductase inhibitory action (method of S. Hayman et al., absorbance change at 340 nm); assay type: biochemical, swine
T1 construct: swine lenses freeze-stored at -80°C were homogenized with distilled water; from tissue; host or cells: swine lens
Experimental: That is, swine lenses freeze-stored at -80°C were homogenized with distilled water and cetrifuged at 10,000 G for 15 minutes. The supernatant was prepared into a 40% ammonium sulfate solution and subjected to cetrifugation at 10,000 G for 10 minutes.
The activity of aldose reductase was determined by the above-mentioned method of S. Hayman et al. That is, the above-mentioned enzyme solution (25 µl) and a drug solution (25 µl) dissolved in 1% DMSO at various concentrations were added to a 40 mM phosphate buffer (200 µl, pH 6.2) containing final concentrations of 0.4 M lithium sulfate, 0.1 mM NADPH (reduced type nicotinamide adenine dinucleotide phosphate) and 3 mM dl-glyceraldehyde as a substrate. […] The test drug number indicates the example number to be mentioned later. […]

[1] = system: sorbitol accumulation in tissues; experiment: Inhibitory action on sorbitol accumulation in tissues of rats with experimental diabetes (streptozotocin); assay type: in vivo, Sprague-Dawley rats; conditions: percent of control (100%), oral at 4, 8 and 24 hours after streptozotocin, Example 9 at 10 mg/kg, EPALRESTAT at 30 mg/kg, 3 hours after final administration; for Sorbitol accumulation, nerve: sciatic nerve
Experimental: Sprague-Dawley rats (male, 6 weeks old, 5-6 per group) were fasted for 18 hours and injected with streptozotocin (SIGMA, 60 mg/kg) via the tail vein under etherization to prepare rats with diabetes.
The test drugs were orally administered at 4, 8 and 24 hours after the injection of streptozotocin. The compound of Example 9 was administered at 10 mg/kg and EPALRESTAT was administered at 30 mg/kg as a 0.5% carboxymethylcellulose suspension, respectively. During the administrations, the rats were raised under free access to feed and water and the sorbitol content in the tissues (erythrocytes, sciatic nerve, lens) was determined 3 hours after the final administration, according to the enzyme method of H.Y. Bergmeyer et al. [Methods of Enzymatic Analysis, vol. 3, 1323-1330 (1974)] with the use of SDH (sorbitol dehydrogenase) and NAD (β-nicotinamide adenine dinucleotide). The results (sorbitol accumulation) are expressed in percent (%) relative to the value of a control group administered with a 0.5% carboxymethylcellulose solution (solvent) instead of the drug, which was taken as 100%.

ICR mice = experiment: Acute toxicity of a single oral dose; assay type: in vivo; conditions: 300 mg/kg single oral dose, male ICR mice, observation for 14 days
Experimental: Normal ICR mice (male, 7 weeks old, 5 per group) were fasted for 18 hours and the compound (300 mg/kg) of Example 9 was orally administered as a 0.5% carboxymethylcellulose suspension. To the control group, a 0.5% carboxymethylcellulose solution alone was orally administered and observation was continued for 14 days thereafter, during which period the mice were allowed to take feed and water freely.

[2] = swine lens enzyme, 3 mM dl-glyceraldehyde as substrate, 0.1 mM NADPH, pH 6.2, 25°C, read-out: IC₅₀

In the case of `O=C(O)CC1Sc2cnccc2N(Cc2nc3c(F)c(F)cc(F)c3s2)C1=O` (stereo not shown) [Compound of Ex.14, 2-[4-(4,5,7-Trifluorobenzothiazol-2-yl)methyl-3-oxo-3,4-dihydro-2H-pyrido[3,4-b][1,4]thiazin-2-yl]acetic acid], the IC50 (aldose reductase; [2]) is reported as 12 nM.

In the case of `O=C(O)CC1Sc2ncccc2N(Cc2nc3c(F)c(F)cc(F)c3s2)C1=O` (stereo not shown) [Compound of Ex. 9, 2-[4-(4,5,7-Trifluorobenzothiazol-2-yl)methyl-3-oxo-3,4-dihydro-2H-pyrido[2,3-b][1,4]thiazin-2-yl]acetic acid], the IC50 (aldose reductase; [2]) is reported as 11 nM, the “Sorbitol accumulation, erythrocytes” value [1] is reported as 59.0* % and the “Sorbitol accumulation, lens” value [1] is reported as 66.2* %. The “Sorbitol accumulation, nerve” value [1] was 3.3* %, the death cases (ICR mice) was “no death case” and the body weight transition (ICR mice; compared with control group) was “showed transition in the same manner as in the control group”.

For `O=C(O)CC1Sc2ncccc2N(Cc2nc3c(Cl)c(Cl)ccc3s2)C1=O` (stereo not shown) [Compound of Ex.12, 2-[4-(4,5-Dichlorobenzothiazol-2-yl)methyl-3-oxo-3,4-dihydro-2H-pyrido[2,3-b][1,4]thiazin-2-yl]acetic acid], the IC50 (aldose reductase; [2]) was 12 nM.

In the case of `CC(/C=C1\SC(=S)N(CC(=O)O)C1=O)=C\c1ccccc1` [EPALRESTAT, reference compound], the IC50 (aldose reductase) is reported as 21 nM, the “Sorbitol accumulation, erythrocytes” value [1] is reported as 66.5% and the “Sorbitol accumulation, lens” value [1] is reported as 89.1%. For the same molecule, the “Sorbitol accumulation, nerve” value [1] was 99.9%.

In the case of `O=C(O)CC1Sc2ncccc2N(Cc2nc3c(F)c(F)ccc3s2)C1=O` (stereo not shown) [Compound of Ex.10, 2-[4-(4,5-Difluorobenzothiazol-2-yl)methyl-3-oxo-3,4-dihydro-2H-pyrido[2,3-b][1,4]thiazin-2-yl]acetic acid], the IC50 (aldose reductase; [2]) is reported as 12 nM.
